Tests used:
[1] = system: HUVEC cells; assay: Vascular endothelial cell (HUVEC) Transwell migration assay with OC conditioned medium; type: cell-based, human; conditions: for HUVEC migration induced by conditioned media of treated OC cells: conditioned media from SKOV-3 cells treated 48 hours, 10 μg/mL Gal-3C or 8 nM paclitaxel, compared with controls; for HUVEC chemotaxis, direct effect of residual drugs: control OC-conditioned medium supplemented with 2 μg/mL Gal-3C, 1.6 nM paclitaxel, or combined, results not shown
Procedure: The experiments were run in triplicate and the results are expressed as the mean number of migrated cells in the presence of different stimuli.
After 48-hour treatments (10 μg/mL Gal-3C, 8 nM paclitaxel, or combined drugs), the conditioned media form SKOV-3 cells was harvested and tested for its ability to induce migration of HUVEC cells in a Transwell assay. […] To test if residual drugs in the conditioned media could inhibit HUVEC migration, a migration assay was performed in the presence of control OC-conditioned medium supplemented with 20% of drug amounts (2 μg/mL Gal-3C, 1.6 nM paclitaxel, and combined drugs).

[2] = system: HUVEC cells; assay: In vitro tubule formation (angiogenesis) assay with OC conditioned media; type: cell-based, human; conditions: for formation of vessel-like structures by HUVEC cells: conditioned media (20% V/V) of OC cells pre-treated 48 hours, 10 μg/mL Gal-3C, 8 nM paclitaxel or combination; for average number of branching points: conditioned media of 48-h treated OC cells, all tested OC cells, compared with vehicle-treated cells; for tubule formation, direct effect of drugs: conditioned media of untreated OC cells (20% V/V) supplemented with 10 μg/mL Gal-3C, 8 nM paclitaxel or both, results not shown
Procedure: Tubule formation assay. A capillary tubule formation assay was performed as previously described (25). Briefly, growth factor-reduced Matrigel™ (50 μL/well; Becton Dickinson) was added with 30 ng/mL recombinant basic fibroblastic growth factor (bFGF; R&D Systems) and incubated for 1 hour at 37° C. 2-h serum-starved HUVEC cells (5,000), were resuspended in 200 μL serum-free EGM-2 medium (Lonza) supplemented with 20% V/V conditioned medium from differently treated OC cells (obtained after 48-h treatment of OC cells with 10 μg/mL Gal-3C, 8 nM paclitaxel, the combination of both, or 0.6% V/V PBS as drug vehicle). HUVEC were then seeded onto the Matrigel™ and incubated at 37° C. and 5% CO2 for 16 hours to allow tubule formation. The assays were run in triplicate, and microphotographs were taken using 40× and 20× objectives with an inverted X71 microscope (Olympus). Pictures were also used to count the number of branching points originated by HUVEC cells, as a measure of the degree of angiogenesis, by the Wimasis WimTube software (Wimasis GmbH, Munich, Germany). Statistically significant differences in the number of branching points were analyzed by the Kruskal-Wallis test followed by a Dunns post-test, to compare all the treatment groups with each other.
Gal-3C blocked OC cell angiogenic potential and αvβ3 integrin clustering. To study the effects of Gal-3C on OC cells ability to induce the formation of new vessels, an in vitro tubule formation assay was carried out using HUVEC cells stimulated with the conditioned media (20% V/V) of OC cells pre-treated for 48 hours with 10 μg/mL Gal-3C, 8 nM paclitaxel, or a combination of both treatments. […] The amount of branching points was also calculated through the Wimasis WimTube software, as described hereinabove. […] A parallel set of experiments were performed using a mixture consisting of the 48-hour conditioned media of each untreated OC cell line (20% V/V) supplemented with 10 μg/mL Gal-3C, 8 nM paclitaxel, or 10 μg/mL Gal-3C+8 nM paclitaxel. […] This outcome on in vitro angiogenesis was correlated with an evident reduction in the clusters of αvβ3 integrins (FIG. 7).

[3] = system: Akt/NF-κB pathway; assay: Western blotting of Akt/NF-κB pathway activation in OC cells; type: cell-based; conditions: 48 hours, Western blot; for levels of phosphorylated, active NF-κB (P-p65) / phospho-Akt (P-Akt) levels: 10 μg/mL Gal-3C, 8 nM paclitaxel or combined
Procedure: Western blotting. Cells were harvested and washed twice with PBS, then lysed (25), and resolved on 12% Bis-Tris (Bis(2-hydroxyethyl)-amino-tris(hydroxymethyl)-methane) poly-acrylamide gel (Invitrogen) and then electrotransferred onto 0.2 μm nitrocellulose membrane. After rinsing in PBS-Tween, the blot was incubated in protein-free blocking buffer (Pierce/Thermo) at 4° C. overnight, then incubated with the indicated primary antibodies (Cell Signaling Technology, Inc., Danvers, Mass. USA) diluted in blocking buffer for 2 hours at RT. After washing 5 times with PBS-Tween, the blot was incubated with matched horseradish peroxidase-coupled secondary antibodies, and developed with the ECL Western blotting Detection System from Perkin-Elmer Life Sciences (Boston, Mass., USA).
Gal-3C reversed the effect of paclitaxel on NF-κB activation by reducing the phosphorylation of Akt. OC cells treated for 48 hours with 10 μg/mL Gal-3C, 8 nM paclitaxel, or combined treatments as described above, then protein extracts were analyzed by Western blotting. […] Increased or decreased levels of p65 phosphorylation (P-p65) were in accordance with higher or lower levels (respectively) of IKB and IKKα/β phosphorylation, as expected. […] To rule out the possibility that alterations in the phosphorylation of p-65, IKB, IKK, or Akt were the results of modulations in the expression levels, total p-65, IKB, IKK, or Akt (phosphorylated and not-phosphorylated forms) were also examined (FIGS. 3A and 3B).

[4] = system: αvβ3 integrin clusters in HUVEC cells; assay: αvβ3 integrin clustering assay; type: cell-based, human; conditions: conditioned medium of OC cells pre-treated 48 h; 10 μg/mL Gal-3C, 8 nM paclitaxel or combined
Procedure: αvβ3 integrin clustering assay. HUVEC cells were cultured in 8-chamber slides coated with 10 μg/mL fibronectin (10^4 cells/chamber). Cells were incubated with conditioned medium of SKOV-3 cells (obtained as described for the tubule formation assay) for 20 minutes to allow integrin clustering, then fixed with 4% WN buffered (pH=7.5) paraformaldehyde in PBS (10 minutes at 37° C.). Then, cells were incubated with 10 μg/mL anti-integrin αvβ3 antibody (R&D Systems, 1:200 dilution in PBS) for 1 hour at RT, followed by two washing steps in PBS (5 minutes each) prior to the addition of FITC-anti-mouse IgG (1:1000 dilution in PBS) for 1 hour at RT. Microphotographs of randomly selected fields were acquired at 60× magnification by confocal microscopy (Leica TCS-SL Confocal Spectral Microscope System, Leica Microsystems, Buffalo Grove, Ill., USA).
Gal-3C blocked OC cell angiogenic potential and αvβ3 integrin clustering. To study the effects of Gal-3C on OC cells ability to induce the formation of new vessels, an in vitro tubule formation assay was carried out using HUVEC cells stimulated with the conditioned media (20% V/V) of OC cells pre-treated for 48 hours with 10 μg/mL Gal-3C, 8 nM paclitaxel, or a combination of both treatments. […] The amount of branching points was also calculated through the Wimasis WimTube software, as described hereinabove. […]

[5] = system: OC cells (SKOV-3, ID8, Pt1, Pt2); assay: Cell viability, statements for all OC cells tested; type: cell-based; conditions: 48 hours
Procedure: (§1) Cell viability. Cell proliferation was assessed with a ViaLight Plus Cell Proliferation and Cytotoxicity BioAssay Kit (Lonza, Walkersville, Md., USA) according to the directions of the manufacturer. In brief, OC cells were seeded in 100 μL RPMI-1640 with 10% heat-inactivated FBS in 96-well plates (8×10^3/well). Each drugs/drug combination was tested in triplicate. Luminescence was measured with a 1-s integrated setting in a Berthold luminometer.
(§2) Administration of Gal-3C reduced OC cell viability when used as a single agent and improved the effects of paclitaxel. OC cells were treated with escalating concentrations of Gal-3C (0, 2, 10, and 20 μg/mL) for 48 hours, then viability was measure as described in methods, and expressed as percentage of control cells (treated with equal amounts of drug vehicle). […] On average, viability was reduced by 25% in SKOV-3, 50% in ID8, 29% in Pt1 and 57% in Pt2 cells. Then, in a separate set of experiments, OC cells were treated for 48 hours with 10 μg/mL Gal-3C, 8 nM paclitaxel, or combined 10 μg/mL Gal-3C+8 nM paclitaxel.

[6] = compared with available standard treatments; cited from earlier work
[7] = system: OC cells; assay: Matrigel invasion assay; type: cell-based; conditions: 48-hour treatment; 10 μg/mL Gal-3C, 8 nM paclitaxel or combined; compared with controls
Procedure: Invasion assay. OC invasion potential was measured as described (25), using Transwell™ polycarbonate inserts (5-μm pore size).
Gal-3C reduced OC invasion and migration alone and in combination with paclitaxel. After 48-hour treatment with 10 μg/mL Gal-3C, 8 nM paclitaxel, or combined drugs, OC cells were tested for in vitro invasivity and motility abilities as described in methods.

[8] = system: ID8; assay: Cell viability (ViaLight Plus), ID8; type: cell-based, murine; conditions: Gal-3C single agent, escalating concentrations (0, 2, 10, 20 μg/mL), 48 hours, on average
Procedure: as §1, §2

[9] = system: SKOV-3; assay: Cell viability (ViaLight Plus), SKOV-3; type: cell-based, human; conditions: Gal-3C single agent, escalating concentrations (0, 2, 10, 20 μg/mL), 48 hours, on average
Procedure: as §1, §2

[10] = system: Pt2; assay: Cell viability (ViaLight Plus), primary OC cells Pt2; type: cell-based, human; conditions: Gal-3C single agent, escalating concentrations (0, 2, 10, 20 μg/mL), 48 hours, on average
Procedure: (§3) Cells. The OC cell lines used in this study were SKOV-3 and ID8 (American Type Culture Collection, Manassas, Va., USA), while primary epithelial OC cells from two patients were obtained with approval from the Texas Tech University HSC IRB (L-Micro Study, IRB NUMBER: L04-095), and the patients' written informed consent. All OC cells were cultured in RPMI-1640 medium supplemented with 10% fetal bovine serum (FBS, Thermo Scientific, Rockford, Ill., USA) in 5% CO2 atmosphere at 37° C. Human Umbilical Vein Endothelial Cells (HUVEC, American Type Culture Collection) were maintained in EGM-2 medium supplemented with endothelial cells growth factors (Lonza, Houston, Tex., USA) and were used within 10 passages.
(§4) Cell viability. Cell proliferation was assessed with a ViaLight Plus Cell Proliferation and Cytotoxicity BioAssay Kit (Lonza, Walkersville, Md., USA) according to the directions of the manufacturer. […] Luminescence was measured with a 1-s integrated setting in a Berthold luminometer.
(§5) Administration of Gal-3C reduced OC cell viability when used as a single agent and improved the effects of paclitaxel. OC cells were treated with escalating concentrations of Gal-3C (0, 2, 10, and 20 μg/mL) for 48 hours, then viability was measure as described in methods, and expressed as percentage of control cells (treated with equal amounts of drug vehicle). […]

[11] = system: Pt1; assay: Cell viability (ViaLight Plus), primary OC cells Pt1; type: cell-based, human; conditions: Gal-3C single agent, escalating concentrations (0, 2, 10, 20 μg/mL), 48 hours, on average
Procedure: as §3, §4, §5

[12] = system: OC cells; assay: Transwell migration assay of OC cells; type: cell-based; conditions: 48-hour treatment; 10 μg/mL Gal-3C, 8 nM paclitaxel or combined; compared with controls
Procedure: Migration assays. 4×10^5 cells were plated in 100 μL serum-free culture medium (supplemented with drugs or vehicle) in the top chambers of 24-well Transwell™ polycarbonate inserts (Corning Costar, NY, USA) with 8-μm pores. Complete culture medium (600 μL) was added to the bottom chamber. After incubation for 4 hours, cells on lower side of the filter were fixed, stained and counted as described (25).
After 48-hour treatment with 10 μg/mL Gal-3C, 8 nM paclitaxel, or combined drugs, OC cells were tested for in vitro invasivity and motility abilities as described in methods.

Row | Compound | HUVEC migration induced by conditioned media of treated OC cells [1] | HUVEC chemotaxis, direct effect of residual drugs [1] | formation of vessel-like structures by HUVEC cells [2] | average number of branching points [2] | tubule formation, direct effect of drugs [2] | levels of phosphorylated, active NF-κB (P-p65) [3] | phospho-Akt (P-Akt) levels [3] | αvβ3 integrin clusters in HUVEC cells [4] | concentration from which cell viability is significantly reduced ([5]; 0, 2, 10, 20 μg/mL tested) [µg/mL] | cell viability, comparison between treatments ([5]; 10 μg/mL Gal-3C, 8 nM paclitaxel or combined) | toxicity profile [6] | OC cell invasion [7] | viability reduced (percentage of control cells) [8] [%] | viability reduced (percentage of control cells) [9] [%] | viability reduced (percentage of control cells) [10] [%] | phosphorylated IKKB, IKK levels ([3]; 10 μg/mL Gal-3C alone, compared with controls) | viability reduced (percentage of control cells) [11] [%] | OC cell migration [12]
1 | CC(=O)O[C@H]1C(=O)[C@@]2(C)[C@H]([C@H](OC(=O)c3ccccc3)[C@]3(O)C[C@H](OC(=O)[C@H](O)[C@@H](NC(=O)c4ccccc4)c4ccccc4)C(C)=C1C3(C)C)[C@]1(OC(C)=O)CO[C@@H]1C[C@@H]2O [paclitaxel, Paclitaxel, reference compound] | unable to reduce the production of HUVEC chemotactic factors | did not significantly affect HUVEC chemotaxis | significantly reduce | significantly reduced | unable to significantly affect tubule formation | increased | increased | still preserved the ability to induce αvβ3 integrin cluster in HUVEC cells (even if at a lower extent compared with control) |  |  |  |  |  |  |  |  |  | 
2 | Gal-3C: truncated, dominant-negative form of Galectin-3; last 143 carboxy-terminal amino acid residues of human Galectin-3 (SEQ ID NO. 4) | significant effect | did not significantly affect HUVEC chemotaxis | significantly reduce | significantly reduced | unable to significantly affect tubule formation | reduction | reduction | completely abrogated | ≥ 10 | more effective in reducing cell viability compared with paclitaxel in all cell lines except SKOV-3 | very low toxicity profile | significantly reduced | 50 | 25 | 57 | reduction | 29 | significantly reduced
